Assay results: patent publication US10336762B2 (priority 2017, dated 2019)
Like-named read-outs stand apart in the source and are kept apart here.

Experiments:
[1] = test system: TNFα; assay: cells; assay type: cell-based, human; settings: Homo sapiens, Monocyte, LPS-stimulated human monocytes, read-out: EC50 TNF
[2] = target: IRAK4 enzyme (Homo sapiens (Human), UniProt Q9NWZ3); assay: biochemical; assay type: biochemical; settings: IRAK4 enzyme, 500 μM ATP
IRAK4 enzyme, sequence (Q9NWZ3 whole entry): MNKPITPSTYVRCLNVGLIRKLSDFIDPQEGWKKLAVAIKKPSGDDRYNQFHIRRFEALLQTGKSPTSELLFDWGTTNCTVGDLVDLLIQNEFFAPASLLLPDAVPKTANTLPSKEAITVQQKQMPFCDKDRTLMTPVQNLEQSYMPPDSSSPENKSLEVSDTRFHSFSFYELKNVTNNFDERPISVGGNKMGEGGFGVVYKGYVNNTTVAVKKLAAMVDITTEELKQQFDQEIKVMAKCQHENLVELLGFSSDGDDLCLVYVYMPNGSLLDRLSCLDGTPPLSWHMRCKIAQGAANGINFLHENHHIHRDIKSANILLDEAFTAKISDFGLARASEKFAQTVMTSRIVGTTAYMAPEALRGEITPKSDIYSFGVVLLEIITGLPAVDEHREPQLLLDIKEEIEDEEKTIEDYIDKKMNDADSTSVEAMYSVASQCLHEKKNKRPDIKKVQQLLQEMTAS

In the case of `CC(C)(O)[C@H](F)CNC(=O)c1cnc(-c2ccc3cc(C#N)cnn23)cc1Nc1cnc(N2CCNCC2)nc1` [Example 921, (R)-6-(3-cyanopyrrolo[1,2-b]pyridazin-7-yl)-N-(2-fluoro-3-hydroxy-3-methyl-butyl)-4-((2-(piperazin-1-yl)pyrimidin-5-yl)amino) nicotinamide], the EC50 ([1]; TNFα by TR-FRET) is reported as 45 nM and the IC50 ([2]; TR-FRET) is reported as < 1 nM.

`CC(C)(O)[C@H](F)CNC(=O)c1cnc(-c2ccc3cc(C#N)cnn23)cc1NS(C)(=O)=O` [Example 10, (R)-6-(3-cyanopyrrolo[1,2-b]pyridazin-7-yl)-N-(2-fluoro-3-hydroxy-3-methylbutyl)-4-(methylsulfonamido)nicotinamide] was tested, and the EC50 ([1]; TNFα content) was > 10000 nM and the IC50 ([2]; TR-FRET) was 234 nM.

For `CC(C)(O)[C@H](F)CNC(=O)c1cnc(-c2ccc3cc(C#N)cnn23)cc1N[C@H]1CC[C@H](NC(=O)C2CCOCC2)CC1` [Example 294, 6-(3-cyanopyrrolo[1,2-b]pyridazin-7-yl)-N-((R)-2-fluoro-3-hydroxy-3-methylbutyl)-4-(((1r,4R)-4-(tetrahydro-2H-pyran-4-carboxamido)cyclohexyl)amino)nicotinamide], the EC50 ([1]; TNFα content) was 735 nM and the IC50 ([2]; TR-FRET) was 3 nM.

For `CC(C)(O)[C@H](F)CNC(=O)c1cnc(-c2ccc3cc(C#N)cnn23)cc1NN1CCOCC1` [Example 44, (R)-6-(3-cyanopyrrolo[1,2-b]pyridazin-7-yl)-N-(2-fluoro-3-hydroxy-3-methylbutyl)-4-(morpholinoamino) nicotinamide], the EC50 ([1]; TNFα content) was > 10000 nM and the IC50 ([2]; TR-FRET) was 6630 nM.

For `CC(C)(O)[C@H](F)CNC(=O)c1cnc(-c2ccc3cc(C#N)cnn23)cc1N[C@H]1C[C@H](S(C)(=O)=O)C1` [Example 443, 6-(3-cyanopyrrolo[1,2-b]pyridazin-7-yl)-N-((R)-2-fluoro-3-hydroxy-3-methylbutyl)-4-(((1r,3R)-3-(methylsulfonyl)cyclobutyl)amino)nicotinamide], the EC50 ([1]; TNFα content) was 110 nM and the IC50 ([2]; TR-FRET (HTRF)) was 1 nM.

`CN(C)C(=O)N1CCC(Nc2cc(-c3ccc4cc(C#N)cnn34)ncc2C(=O)NC[C@@H](F)C(C)(C)O)CC1` [Example 243, (R)-6-(3-cyanopyrrolo[1,2-b]pyridazin-7-yl)-4-((1-(dimethylcarbamoyl)piperidin-4-yl)amino)-N-(2-fluoro-3-hydroxy-3-methylbutyl)nicotinamide] showed an EC50 ([1]; TNFα content) of 218 nM and an IC50 ([2]; TR-FRET) of 2 nM.

Work on `CC(C)(O)[C@H](F)CNC(=O)c1cnc(-c2ccc3cc(C#N)cnn23)cc1Nc1ncc(F)cn1` [Example 584, (R)-6-(3-cyanopyrrolo[1,2-b]pyridazin-7-yl)-N-(2-fluoro-3-hydroxy-3-methylbutyl)-4-((5-fluoro-pyrimidin-2-yl)amino)nicotinamide] yielded an EC50 ([1]; TNFα content) of 274 nM and an IC50 ([2]; TR-FRET (HTRF)) of 4 nM.

For `CC(C)(O)[C@H](F)CNC(=O)c1cnc(-c2ccc3cc(C#N)cnn23)cc1N[C@H]1CC[C@@H](N2CCC(F)(F)C2)CC1` [Example 724, 6-(3-cyanopyrrolo[1,2-b]pyridazin-7-yl)-4-(((1s,4S)-4-(3,3-difluoropyrrolidin-1-yl)cyclohexyl)amino)-N-((R)-2-fluoro-3-hydroxy-3-methylbutyl)nicotinamide], the EC50 ([1]; TNFα content) was 59 nM and the IC50 ([2]; TR-FRET (HTRF)) was < 1 nM.

In the case of `COCC(=O)NC[C@H]1C[C@H](Nc2cc(-c3ccc4cc(C#N)cnn34)ncc2C(=O)NC[C@@H](F)C(C)(C)O)C1` [Example 823, 6-(3-cyanopyrrolo[1,2-b]pyridazin-7-yl)-N-((R)-2-fluoro-3-hydroxy-3-methylbutyl)-4-(((1r,3R)-3-((2-methoxyacetamido)methyl)cyclobutyl)amino)nicotinamide], the EC50 ([1]; TNFα by TR-FRET) is reported as 47 nM and the IC50 ([2]; TR-FRET) is reported as < 1 nM.

`CC(C)(O)[C@H](F)CNC(=O)c1cnc(-c2ccc3cc(C#N)cnn23)cc1Nc1ccc(-c2nc[nH]n2)cc1` [Example 175, (R)-4-((4-(1H-1,2,4-triazol-3-yl)phenyl)amino)-6-(3-cyanopyrrolo[1,2-b]pyridazin-7-yl)-N-(2-fluoro-3-hydroxy-3-methylbutyl)nicotinamide] was tested, and the EC50 ([1]; TNFα content) was 20 nM and the IC50 ([2]; TR-FRET) was < 1 nM.

`CC(C)Nc1cc(-c2ccc3cc(C#N)cnn23)ncc1C(=O)NCCC1(O)CCOCC1` [Example 95, 6-(3-cyanopyrrolo[1,2-b]pyridazin-7-yl)-N-(2-(4-hydroxytetrahydro-2H-pyran-4-yl)ethyl)-4-(isopropylamino) nicotinamide] gave an EC50 ([1]; TNFα content) of 42 nM and an IC50 ([2]; TR-FRET) of 1 nM.

`CC(C)(O)[C@H](F)CNC(=O)c1cnc(-c2ccc3cc(C#N)cnn23)cc1NC12CCC(CC1)CC2` [Example 421, (R)-4-(bicyclo[2.2.2]octan-1-ylamino)-6-(3-cyano-pyrrolo[1,2-b]pyridazin-7-yl)-N-(2-fluoro-3-hydroxy-3-methylbutyl)nicotinamide] was tested, and the EC50 ([1]; TNFα content) was 24 nM and the IC50 ([2]; TR-FRET (HTRF)) was 2 nM.

`CC(C)(O)[C@H](F)CNC(=O)c1cnc(-c2ccc3cc(C#N)cnn23)cc1N[C@@H]1C[C@@H]2CN(S(C)(=O)=O)C[C@@H]2C1` [Example 247, 6-(3-cyanopyrrolo[1,2-b]pyridazin-7-yl)-N-((R)-2-fluoro-3-hydroxy-3-methylbutyl)-4-(((3aR,5r,6aS)-2-(methylsulfonyl)octahydro-cyclopenta[c]pyrrol-5-yl)amino)nicotinamide] was tested, and the EC50 ([1]; TNFα content) was 262 nM and the IC50 ([2]; TR-FRET) was 6 nM.

In the case of `N#Cc1cnn2c(-c3cc(NC45CCC(O)(CC4)CC5)c(C(=O)NCC(=O)N4CC(F)C4)cn3)ccc2c1` [Example 787, 6-(3-cyanopyrrolo[1,2-b]pyridazin-7-yl)-N-(2-(3-fluoroazetidin-1-yl)-2-oxoethyl)-4-((4-hydroxybicyclo[2.2.2]octan-1-yl)amino) nicotinamide], the EC50 ([1]; TNFα content) is reported as 79 nM and the IC50 ([2]; TR-FRET (HTRF)) is reported as < 1 nM.

With `CC(C)(O)[C@H](F)CNC(=O)c1cnc(-c2ccc3cc(C#N)cnn23)cc1NC1CCN(C(=O)c2ccoc2)CC1` [Example 156, (R)-6-(3-cyanopyrrolo[1,2-b]pyridazin-7-yl)-N-(2-fluoro-3-hydroxy-3-methylbutyl)-4-((1-(furan-3-carbonyl)piperidin-4-yl)amino)nicotinamide] the EC50 ([1]; TNFα content) was 179 nM and the IC50 ([2]; TR-FRET) was 4 nM.

For `N#Cc1cnn2c(-c3cc(N[C@H]4CC[C@H](N5CCOC5=O)CC4)c(C(=O)NCC(N)=O)cn3)ccc2c1` [Example 390, N-(2-amino-2-oxoethyl)-6-(3-cyanopyrrolo[1,2-b]pyridazin-7-yl)-4-(((1r,4r)-4-(2-oxooxazolidin-3-yl)cyclohexyl)amino) nicotinamide], the EC50 ([1]; TNFα content) was > 10000 nM and the IC50 ([2]; TR-FRET) was 6 nM.

`CC(C)(O)[C@H](F)CNC(=O)c1cnc(-c2ccc3cc(C#N)cnn23)cc1-n1cc(-c2ccc(N)cn2)cn1` [Example 939, (R)-4-(4-(5-aminopyridin-2-yl)-1H-pyrazol-1-yl)-6-(3-cyanopyrrolo[1,2-b]pyridazin-7-yl)-N-(2-fluoro-3-hydroxy-3-methyl-butyl)nicotinamide] was tested, and the EC50 ([1]; TNFα by TR-FRET) was > 10000 nM and the IC50 ([2]; TR-FRET) was 642 nM.

Compound `N#Cc1cnn2c(-c3cc(N[C@H]4CCC[C@@H](O)C4)c(C(=O)NC4(C#N)CC4)cn3)ccc2c1` [Example 513, N-(1-cyanocyclopropyl)-6-(3-cyanopyrrolo[1,2-b]pyridazin-7-yl)-4-(((1S,3R)-3-hydroxy-cyclohexyl)amino) nicotinamide] has an EC50 ([1]; TNFα content) of 110 nM and an IC50 ([2]; TR-FRET (HTRF)) of 2 nM.

For `CC(C)(O)[C@H](F)CNC(=O)c1cnc(-c2ccc3cc(C#N)cnn23)cc1NC12CCC(NC(=O)C3CC3)(CC1)CC2` [Example 281, (R)-6-(3-cyanopyrrolo[1,2-b]pyridazin-7-yl)-4-((4-(cyclopropanecarboxamido)bicyclo[2.2.2]octan-1-yl)amino)-N-(2-fluoro-3-hydroxy-3-methylbutyl) nicotinamide], the EC50 ([1]; TNFα content) was 37 nM and the IC50 ([2]; TR-FRET) was 1 nM.
